Source: patent publication US10760110B2, “Antibiotic testing and screening system” (priority 2017, dated 2020)
Where two headings read alike, the source gives them in different places.

Legend:
[1] = tested on: K. pneumoniae NVT1001 and its ΔompK35/36 and/or ΔramR mutants; test: Etest MIC, OmpK35/36 loss and AcrAB-TolC overexpression (ΔramR) strains (Table 6); assay type: cell-based, Klebsiella pneumoniae; details: Klebsiella pneumoniae
Experimental: (§1) The MICs of antibiotics were determined using the Etest (Biodisk AB, Sweden) according to the manufacturer's instructions. The MICs from the Etest, which fall between standard two-fold dilutions, were rounded up to the next highest two-fold value. The MICs of ceftazidime and cefotaxime against K. pneumoniae NVT1001 harbouring the pACYC177 plasmid with blaOXA-48 were further determined using a broth microdilution test according to the recommendations of the CLSI,^25 and the results were interpreted according to the breakpoints established by the CLSI in 2017.^25 Meanwhile, due to the lack of CLSI breakpoints in 2016 and 2017, the results for cephalothin were interpreted according to the breakpoints established by the CLSI in 2015,^26 and the results for moxifloxacin were interpreted according to the breakpoints established by the EUCAST in 2017.^27

[2] = tested on: K. pneumoniae NVT1001 ΔramRΔompK35/36 mutant and its revertants; test: Etest MIC, ΔramRΔompK35/36 mutant and its revertants (Table 7); assay type: cell-based; details: Klebsiella pneumoniae
Text: The allelic-exchange method was used to restore the wild-type gene in the K. pneumoniae NVT1001 mutants with constructed chromosome-mediated resistance mechanisms, as described by Tsai et al.^19 Briefly, a DNA fragment of the entire wild-type gene sequence along with flanking regions was amplified from K. pneumoniae NVT1001 using PCR with specific primers. The resulting PCR fragment was digested and then cloned into pUT-KB. For homologous recombination, this plasmid was transformed into E. coli S17-1 λpir^23 via electroporation and mobilized into the K. pneumoniae NVT1001 mutant via conjugation. […] After incubation in 20 mL BHI broth for 6 hours at 37° C. in the absence of kanamycin, the fully grown cultures were spread onto LB agar plates supplemented with 10% sucrose. After the double crossover occurred, the sucrose-resistant and kanamycin-susceptible colonies were selected, and the restoration of the wild-type gene was confirmed via DNA sequencing.
as §1

[3] = tested on: K. pneumoniae NVT1001 strains with Sul/Dfr plasmids; test: Etest MIC of folate pathway inhibitors, OmpK35/36 loss, ΔramR and/or drug-resistant target enzyme (Table 15); assay type: cell-based, Klebsiella pneumoniae; details: for MIC: Klebsiella pneumoniae
Experimental: DNA fragments of the resistance genes along with their flanking regions were amplified from clinical plasmids via PCR with specific primer pairs. The resulting PCR fragments were digested and then cloned into the plasmid pACYC177 or pACYC184. The resulting plasmids were then transformed into K. pneumoniae strain NVT1001 via electroporation. The recombinant bacteria were plated onto LB agar plates containing kanamycin (50 mg/L) or chloramphenicol (50 mg/L), and the presence of the cloned gene was confirmed via PCR and DNA sequencing.
as §1

[4] = ΔramRΔ35/36, ΔramRΔompK35/36 mutant
[5] = ΔramRΔompK35/36::ompK35/36 revertant
[6] = ΔramRΔompK35/36::ompK35 revertant
[7] = ΔramRΔompK35/36::ompK36 revertant
[8] = ΔramRΔompK35/36::ramR revertant
[9] = ΔramRΔompK35/36::ramR::ompK35/36 revertant
[10] = ΔramRΔompK35/36::ramR::ompK35 revertant
[11] = ΔramRΔompK35/36::ramR::ompK36 revertant
[12] = DfrA1 on pACYC177, WT (NVT1001), read-out: MIC
[13] = DfrA1 on pACYC177, ΔompK35/36 mutant
[14] = DfrA1 on pACYC177, ΔompK35 mutant
[15] = DfrA1 on pACYC177, ΔompK36 mutant
[16] = DfrA1 on pACYC177, ΔramR mutant
[17] = DfrA1 on pACYC177, ΔramRΔompK35/36 mutant
[18] = DfrA1 on pACYC177, ΔramRΔompK35 mutant
[19] = DfrA1 on pACYC177, ΔramRΔompK36 mutant
[20] = DfrA16 on pACYC177, WT (NVT1001), read-out: MIC
[21] = DfrA16 on pACYC177, ΔompK35/36 mutant
[22] = DfrA16 on pACYC177, ΔompK35 mutant
[23] = DfrA16 on pACYC177, ΔompK36 mutant
[24] = DfrA16 on pACYC177, ΔramR mutant
[25] = DfrA16 on pACYC177, ΔramRΔompK35/36 mutant
[26] = DfrA16 on pACYC177, ΔramRΔompK35 mutant
[27] = DfrA16 on pACYC177, ΔramRΔompK36 mutant
[28] = Sul1 on pACYC177, WT (NVT1001), read-out: MIC
[29] = Sul1 on pACYC177, ΔompK35/36 mutant
[30] = Sul1 on pACYC177, ΔompK35 mutant
[31] = Sul1 on pACYC177, ΔompK36 mutant
[32] = Sul1 on pACYC177, ΔramRΔompK35/36 mutant
[33] = Sul1 on pACYC177, ΔramRΔompK35 mutant
[34] = Sul1 on pACYC177, ΔramRΔompK36 mutant
[35] = Sul2 on pACYC177, WT (NVT1001), read-out: MIC
[36] = Sul2 on pACYC177, ΔompK35/36 mutant
[37] = Sul2 on pACYC177, ΔompK35 mutant
[38] = Sul2 on pACYC177, ΔompK36 mutant
[39] = Sul2 on pACYC177, ΔramRΔompK35/36 mutant
[40] = Sul2 on pACYC177, ΔramRΔompK35 mutant
[41] = Sul2 on pACYC177, ΔramRΔompK36 mutant
[42] = no supplemental plasmid, WT (NVT1001), read-out: MIC
[43] = no supplemental plasmid, ΔompK35/36 mutant
[44] = no supplemental plasmid, ΔompK35 mutant
[45] = no supplemental plasmid, ΔompK36 mutant
[46] = no supplemental plasmid, ΔramR mutant
[47] = no supplemental plasmid, ΔramRΔompK35/36 mutant
[48] = no supplemental plasmid, ΔramRΔompK35 mutant
[49] = no supplemental plasmid, ΔramRΔompK36 mutant

Cc1cc(NS(=O)(=O)c2ccc(N)cc2)no1 [Sulfamethoxazole]
256 µg/mL: MIC ([1]; WT, NVT1001) | MIC ([1]; Δ35, ΔompK35 mutant) | MIC [2, 9] | MIC [2, 11] | MIC [3, 12] | MIC [3, 20] | MIC [3, 42] | MIC [3, 44]
> 1020 µg/mL: MIC ([1]; Δ35/36, ΔompK35/36 mutant) | MIC ([1]; Δ36, ΔompK36 mutant) | MIC ([1]; ΔramR mutant) | MIC ([1]; ΔramRΔ35, ΔramRΔompK35 mutant) | MIC [1, 4] | MIC ([1]; ΔramRΔ36, ΔramRΔompK36 mutant) | MIC [2, 5] | MIC [2, 6] | MIC [2, 7] | MIC [2, 8] | MIC [2, 10] | MIC ([2]; ΔramRΔompK35/36 mutant) | MIC [3, 13] | MIC [3, 14] | MIC [3, 15] | MIC [3, 16] | MIC [3, 17] | MIC [3, 18] | MIC [3, 19] | MIC [3, 21] | MIC [3, 22] | MIC [3, 23] | MIC [3, 24] | MIC [3, 25] | MIC [3, 26] | MIC [3, 27] | MIC [3, 28] | MIC [3, 29] | MIC [3, 30] | MIC [3, 31] | MIC ([3]; Sul1 on pACYC177, ΔramR mutant) | MIC [3, 32] | MIC [3, 33] | MIC [3, 34] | MIC [3, 35] | MIC [3, 36] | MIC [3, 37] | MIC [3, 38] | MIC ([3]; Sul2 on pACYC177, ΔramR mutant) | MIC [3, 39] | MIC [3, 40] | MIC [3, 41] | MIC [3, 43] | MIC [3, 45] | MIC [3, 46] | MIC [3, 47] | MIC [3, 48] | MIC [3, 49]

COc1cc(Cc2cnc(N)nc2N)cc(OC)c1OC [Trimethoprim]
32 µg/mL: MIC [3, 33] | MIC [3, 40] | MIC [3, 41]
8 µg/mL: MIC ([1]; ΔramR mutant) | MIC ([1]; ΔramRΔ35, ΔramRΔompK35 mutant) | MIC [2, 5] | MIC [2, 6] | MIC [2, 7] | MIC [3, 46] | MIC [3, 48]
16 µg/mL: MIC ([1]; ΔramRΔ36, ΔramRΔompK36 mutant) | MIC ([3]; Sul1 on pACYC177, ΔramR mutant) | MIC ([3]; Sul2 on pACYC177, ΔramR mutant) | MIC [3, 49]
2 µg/mL: MIC ([1]; WT, NVT1001, read-out: MIC) | MIC ([1]; Δ35, ΔompK35 mutant) | MIC ([1]; Δ35/36, ΔompK35/36 mutant) | MIC ([1]; Δ36, ΔompK36 mutant) | MIC [2, 8] | MIC [2, 9] | MIC [2, 10] | MIC [2, 11] | MIC [3, 28] | MIC [3, 30] | MIC [3, 31] | MIC [3, 35] | MIC [3, 42] | MIC [3, 43] | MIC [3, 44] | MIC [3, 45]
> 32 µg/mL: MIC [1, 4] | MIC ([2]; ΔramRΔompK35/36 mutant) | MIC [3, 12] | MIC [3, 13] | MIC [3, 14] | MIC [3, 15] | MIC [3, 16] | MIC [3, 17] | MIC [3, 18] | MIC [3, 19] | MIC [3, 20] | MIC [3, 21] | MIC [3, 22] | MIC [3, 23] | MIC [3, 24] | MIC [3, 25] | MIC [3, 26] | MIC [3, 27] | MIC [3, 32] | MIC [3, 34] | MIC [3, 39] | MIC [3, 47]
no significant (≥4-fold) effects: effects on the MIC ([3]; strains with porin loss and/or Sul production)
4 µg/mL: MIC [3, 29] | MIC [3, 36] | MIC [3, 37] | MIC [3, 38]
